Assay results published in patent US11542316B2, “S-Arrestin peptides and therapeutic uses thereof” (APITOPE INTERNATIONAL NV, priority 2017, dated 2023).
Ends that are not written are not given here.

Tests used:
Solubility of peptides = assay type: physicochemical
Description: The solubility of potential apitopes from S—Ag are determined by visual observations and turbidity measurement by UV spectrophotometry at 280 nm. The solubility of the peptides can be modified by adding amino acids ‘GKK’ or ‘KKK’ (or similar) on both the C- and N-terminus of the sequence. Modifications that may be suitable are described in WO2014/072958 (which is hereby incorporated by reference).
For some of these peptides, the parental peptides were insoluble, and solubility is a critical parameter for them to work as a tolerogenic peptide. Several end-terminal modifications can be used and as example used here they were improved by addition of 3 lysines before and after the original peptide sequence (labelled as ‘-KKK’ versions).

[1] = target: T1, MHC II molecules present on dendritic cells (DC) (Homo sapiens, UniProt P01903+P01911); assay: In vivo presentation experiment, DR2tg mice; conditions: 100 μg peptide s.c., CD11c+ cells harvested after 2 hours, co-culture 48 hours
T1 construct: from tissue; host or cells: CD11c+ dendritic cells from spleens of DR2tg mice (DRA*0101 and DRB1*1501 cDNAs under a mouse MHCII promoter, no mouse MHC class II)
Text: FIG. 14: In vivo presentation protocol. Mice are immunized with peptide/CFA and a T cell line is established. For this, ten days after immunization the LN and spleens are harvested and cultured with different concentrations of peptide; 2×10^6 cells/ml APC+1×10^6 cells/ml CD4^+ cells per well. At day 7 the cells are re-stimulated with fresh APC and the same concentrations of peptide. After 14 to 21 days, CD4^+ cells are isolated from these cultures by magnetic bead isolation. These CD4^+ cells are co-cultured with CD11c^+ (dendritic) cells isolated by magnetic bead isolation from spleens of mice s.c. injected with peptide 2 hours before. Control mice receive a s.c. injection of PBS. After 48 hours, supernatant is collected and cytokine response (IFN-γ) is measured. […]
FIG. 17: In vivo presentation of HIP-9FL nested peptides in DR2 mice. […] After 48 hours, supernatant was collected and IFN-γ production was measured by ELISA. […]
DR3tg or DR2tg mice were injected with 100 μg of peptide in 100 μl PBS subcutaneously (s.c.) in the flank. […] After 48 hours, supernatant of these co-cultures was collected and CD4^+ T cell activation was analysed by IFN-γ ELISA (R&D Systems, Abingdon, UK). In a parallel experiment, CD4^+ T cell responses towards peptide added in vitro were assessed to make sure the T cells recognize the peptides presented by the CD11c^+ cells.

LN and spleen cells = assay: Immunogenicity of HIP-115 in DR3 mice (IFN-γ ELISA on LN and spleen cultures); assay type: in vivo; conditions: mice immunized with 50 μg HIP-115/CFA; LN and spleens cultured with 10 and 25 μg/ml HIP-115, 72 h
Description: FIG. 1: Immunogenicity of HIP-115 in DR3 mice. Mice were immunized with 50 μg HIP-115/CFA or PBS/CFA in the tail base. After 10 days, LN and spleens were harvested and cultured with 10 μg/ml and 25 μg/ml of HIP-115. Supernatants were collected after 72 h. Cell activation was measured by IFN-γ ELISA. (A) Immunogenicity in LN. (B) Immunogenicity in spleens. CFA, Complete Freund's Adjuvant; LN, lymph nodes.
Animal experiments were done to verify the predictions. Mice that were immunized with SAg (or fragments of it) were tested for their capacity to elicit an immune response when probed with the whole protein or parts of it. […] This response can be observed in secondary lymphoid organs, namely spleen (FIG. 1A) and lymph nodes (LN; FIG. 1B).

[2] = test system: SAg-specific hybridoma cells / T cell line with VAVY APC; assay: Antigen Processing Independent Presentation System (APIPS) assay, fresh or fixed VAVY APC; assay type: cell-based, DR3 mice; conditions: DR3 hybridoma clone (IL-2, 48 h) or T cell line (IFN-γ, 24 h)
Description: (§1) FIG. 2: identification of apitopes within HIP-115. (A) DR3 mice were immunized with SAg and hybridomas were generated. 5×10^4 SAg-specific hybridoma cells were cultured with 5×10^4 fresh or fixed commercial APC (VAVY) cells. T cell proliferation was measured by IL-2 ELISA on supernatants collected after 48 h. The graph represents the mean of duplicate measurements±SEM. (B) DR3 mice were immunized with HIP-115 and a T cell line was established. Ten days after immunization the LN and spleens were harvested and cultured with different concentrations of peptide (0.1-1-2.5 and 5 μg/ml); 2×10^6 cells/ml APC+1×10^6 cells/ml CD4 T cells per well. At day 7 the cells were re-stimulated with the same concentrations of peptide. On day 14 an APIPS test was done using commercial APC (VAVY). After 24 h, antigen-induced T cell activation was measured by IFN-γ ELISA and shown as IFN-γ concentration (pg/ml). The graph represents the mean of duplicate measurements±SEM. LN, lymph nodes; APC, Antigen presenting cell; APIPS, Antigen Processing Independent Presentation System.
as §1, with “3:” for “2:”, “HIP-241125.” for “HIP-115.”, “HIP-241125+HIP-24DG” for “HIP-115”
(§2) FIG. 5: Identification of apitopes within HIP-17GN. DR3 mice were immunized with HIP-17GN and a T cell line was established. Ten days after immunization the LN and spleens were harvested and cultured with different concentrations of peptide (0.1-1-2.5 and 5 μg/ml); 2×10^6 cells/ml APC+1×10^6 cells/ml CD4 T cells per well. At day 7 the cells were re-stimulated with the same concentrations of peptide. On day 14 an APIPS test was done using commercial APC (VAVY). After 24 h, antigen-induced T cell activation was measured by IFN-γ ELISA and shown as OD values. The graph represents the mean of triplicate measurements±SEM. LN, lymph nodes; APC, Antigen presenting cell; APIPS, Antigen Processing Independent Presentation System.
as §2, with “6:” for “5:”, “HIP-12AK.” for “HIP-17GN.”, “HIP-12AK” for “HIP-17GN”, “IFN-γ concentration (pg/ml).” for “OD values.”, “duplicate” for “triplicate”
Antigen-specific clones or TCL were tested for their reactivity to the peptides, presented by fixed or not fixed (fresh) cells (VAVY or MGAR) (=APCs). 5×10^4 cells from the individual clones were cultured with 10 μg/ml peptide and 5×10^4 fixed or fresh APCs. […]

T1 sequence (P01903 26-254): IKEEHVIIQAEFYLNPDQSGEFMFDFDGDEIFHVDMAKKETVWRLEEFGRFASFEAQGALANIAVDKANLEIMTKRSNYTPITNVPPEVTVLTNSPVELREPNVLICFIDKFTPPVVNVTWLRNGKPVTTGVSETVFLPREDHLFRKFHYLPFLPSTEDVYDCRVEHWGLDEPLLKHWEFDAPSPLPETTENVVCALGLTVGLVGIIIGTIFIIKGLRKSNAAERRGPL
T1 sequence (P01911 30-266): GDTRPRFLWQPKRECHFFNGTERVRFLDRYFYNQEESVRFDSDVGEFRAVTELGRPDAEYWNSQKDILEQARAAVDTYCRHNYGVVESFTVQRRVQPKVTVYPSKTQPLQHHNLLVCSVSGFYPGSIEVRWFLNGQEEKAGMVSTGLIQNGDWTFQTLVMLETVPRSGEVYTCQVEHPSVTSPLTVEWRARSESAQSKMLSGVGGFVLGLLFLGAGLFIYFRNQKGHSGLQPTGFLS

Row | solubility (Solubility of peptides) | picked up and presented by MHC II on dendritic cells to peptide-specific T cells (IFN-γ production) [1] | Substance | immune response against HIP-115 (IFN-γ ELISA) (LN and spleen cells) | behaves as apitope (response to peptide presented by fresh or fixed APC) [2]
1 | insoluble | not able to cause this activation | AFVEQVANVVL-NH2 [HIP-9K1, AFVEQVANVVL] | – | –
2 | – | – | MAASGKTSKSEPNHVIFKKISRDKSVTIYLGNRDYIDHVSQV-NH2 [HIP-115] | develop an immune response against it | behave as apitopes
